Source: ChEMBL document CHEMBL3351767, “The discovery of Polo-like kinase 4 inhibitors: design and optimization of spiro[cyclopropane-1,3'[3H]indol]-2'(1'H).ones as orally bioavailable antitumor agents” (J Med Chem, 2015)
Converted amounts (≈) assume the structure as drawn.

Assays:
[1] = target: Vascular endothelial growth factor receptor 2 (Homo sapiens, UniProt P35968); experiment: Inhibition of KDR (unknown origin) by FRET-based homogeneous assay
Cytochrome P450 1A2 = target: T1, Cytochrome P450 1A2 (Homo sapiens, UniProt P05177); experiment: (§1) Inhibition of CYP1A2 (unknown origin) using CEC substrate after 15 mins by fluorescence assay; assay type: ADME
T1 sequence (P05177 whole entry): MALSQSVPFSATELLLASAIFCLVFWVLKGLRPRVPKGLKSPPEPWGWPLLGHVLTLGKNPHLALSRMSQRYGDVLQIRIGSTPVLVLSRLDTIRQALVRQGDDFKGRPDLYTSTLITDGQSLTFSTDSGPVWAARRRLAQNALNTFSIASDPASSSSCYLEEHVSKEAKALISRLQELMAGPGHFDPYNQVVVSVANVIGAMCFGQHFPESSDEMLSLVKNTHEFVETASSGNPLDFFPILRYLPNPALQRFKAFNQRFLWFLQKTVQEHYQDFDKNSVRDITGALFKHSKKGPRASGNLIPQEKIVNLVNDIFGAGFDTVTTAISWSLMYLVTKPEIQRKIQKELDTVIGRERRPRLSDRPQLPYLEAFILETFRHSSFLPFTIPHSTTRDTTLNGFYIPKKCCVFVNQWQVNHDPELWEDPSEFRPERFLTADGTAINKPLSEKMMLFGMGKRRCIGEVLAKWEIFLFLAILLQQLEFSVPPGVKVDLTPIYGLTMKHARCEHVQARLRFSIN

Cytochrome P450 2C9 = Cytochrome P450 2C9 (Homo sapiens, UniProt P11712); experiment: Inhibition of CYP2C9 (unknown origin) using MFC substrate after 45 mins by fluorescence assay; assay type: ADME
Cytochrome P450 2C19 = Cytochrome P450 2C19 (Homo sapiens, UniProt P33261); experiment: Inhibition of CYP2C19 (unknown origin) using MFC substrate after 30 mins by fluorescence assay; assay type: ADME
Cytochrome P450 2D6 = Cytochrome P450 2D6 (Homo sapiens, UniProt P10635); experiment: (§2) Inhibition of CYP2D6 (unknown origin) using AMMC substrate after 45 mins by fluorescence assay; assay type: ADME
Cytochrome P450 3A4 = Cytochrome P450 3A4 (Homo sapiens, UniProt P08684); experiment: Inhibition of CYP3A4 (unknown origin) using BFC substrate after 30 mins by fluorescence assay; assay type: ADME
MCF7 = experiment: Cytotoxicity against human MCF7 cells after 5 days by SRB assay; assay type: functional; details: MCF7, 120 h
MDA-MB-468 [2] = experiment: Cytotoxicity against human MDA-MB-468 cells after 5 days by SRB assay; assay type: functional; details: MDA-MB-468, 120 h
[3] = Aqueous solubility at pH 7.4; assay type: physicochemical; details: buffer
[4] = Protein binding in plasma (unknown origin); assay type: ADME, cell-free; details: read-out: PPB (converted)
[5] = Half life in mouse liver microsomes at 1 uM in presence of NADPH by LC-MS method; assay type: ADME
[6] = Half life in human liver microsomes at 1 uM in presence of NADPH by LC-MS method; assay type: ADME
[7] = Cmax in SCID mouse at 50 mg/kg, ip after 8 hrs by LCMS/MS method; assay type: ADME, organism-based; parameters: dose 50 mg/kg, route intraperitoneal; details: in vivo
[8] = AUC in SCID mouse at 50 mg/kg, ip after 8 hrs by LCMS/MS method; assay type: ADME, organism-based; parameters: time < 8 hr, dose 50 mg/kg, route intraperitoneal; details: plasma
[9] = target: Serine/threonine-protein kinase PLK1 (Homo sapiens, UniProt P53350); experiment: Inhibition of PLK1 (unknown origin) by FRET-based homogeneous assay
[10] = target: Serine/threonine-protein kinase PLK2 (Homo sapiens, UniProt Q9NYY3); experiment: Inhibition of PLK2 (unknown origin) by FRET-based homogeneous assay
[11] = target: Serine/threonine-protein kinase PLK3 (Homo sapiens, UniProt Q9H4B4); experiment: Inhibition of PLK3 (unknown origin) by FRET-based homogeneous assay
MDA-MB-231 = experiment: Cytotoxicity against human MDA-MB-231 cells after 5 days by SRB assay; assay type: functional; details: MDA-MB-231, 120 h
[12] = Cytotoxicity against human SKBR3 cells after 5 days by SRB assay; assay type: functional; details: SK-BR-3, 120 h
[13] = Cmax in SCID mouse at 25 mg/kg, po by LCMS/MS method; assay type: ADME, organism-based; parameters: dose 25 mg/kg, route oral; details: in vivo
[14] = AUC in SCID mouse at 25 mg/kg, po by LCMS/MS method; assay type: ADME, organism-based; parameters: dose 25 mg/kg, route oral; details: plasma
Mus musculus = experiment: Toxicity in human MDA-MB-468 cells xenografted mouse assessed as reduction in body weight at 25 mg/kg, po QD for 21 days; assay type: organism-based; parameters: dose 25 mg/kg, route oral; details: in vivo, 504 h
[15] = target: T2, Serine/threonine-protein kinase PLK4 (Homo sapiens, UniProt O00444); experiment: Inhibition of human N-terminal GST-tagged PLK4 (1 to 391 residues) expressed in Escherichia coli incubated for 30 mins by ELISA method
T2 sequence (O00444 whole entry): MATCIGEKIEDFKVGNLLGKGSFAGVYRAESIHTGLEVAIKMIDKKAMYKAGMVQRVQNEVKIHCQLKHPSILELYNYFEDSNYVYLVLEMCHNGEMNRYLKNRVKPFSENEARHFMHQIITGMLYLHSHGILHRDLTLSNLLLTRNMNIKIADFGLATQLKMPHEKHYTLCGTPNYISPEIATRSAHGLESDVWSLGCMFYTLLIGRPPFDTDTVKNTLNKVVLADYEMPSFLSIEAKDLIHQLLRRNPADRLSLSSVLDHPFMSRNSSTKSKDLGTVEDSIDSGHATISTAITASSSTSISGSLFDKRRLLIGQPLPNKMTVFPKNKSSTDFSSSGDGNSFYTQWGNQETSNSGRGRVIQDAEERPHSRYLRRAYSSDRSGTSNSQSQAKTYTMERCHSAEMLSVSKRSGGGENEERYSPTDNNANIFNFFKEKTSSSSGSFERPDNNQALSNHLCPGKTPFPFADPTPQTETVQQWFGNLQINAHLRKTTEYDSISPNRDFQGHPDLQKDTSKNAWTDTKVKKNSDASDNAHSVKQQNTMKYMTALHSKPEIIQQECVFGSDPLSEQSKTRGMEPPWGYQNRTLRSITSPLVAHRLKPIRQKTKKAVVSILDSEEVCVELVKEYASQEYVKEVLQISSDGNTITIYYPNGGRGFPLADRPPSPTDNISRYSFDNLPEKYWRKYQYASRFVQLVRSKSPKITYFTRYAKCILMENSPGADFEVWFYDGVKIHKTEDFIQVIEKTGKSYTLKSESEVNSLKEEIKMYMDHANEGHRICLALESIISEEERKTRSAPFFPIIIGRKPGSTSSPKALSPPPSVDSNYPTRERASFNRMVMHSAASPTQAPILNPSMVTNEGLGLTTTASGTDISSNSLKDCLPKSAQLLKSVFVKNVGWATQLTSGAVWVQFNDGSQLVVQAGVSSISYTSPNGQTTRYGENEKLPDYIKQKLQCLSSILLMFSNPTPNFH

CYP1A2 = target: T3, CYP1A2 (Homo sapiens, UniProt P05177); experiment: as §1; assay type: ADME; details: probe CEC
T3 sequence (P05177 whole entry): T1 sequence (P05177 whole entry)

CYP2D6 = CYP2D6 (Homo sapiens, UniProt P10635); experiment: as §2; assay type: ADME; details: probe AMMC
[16] = target: T4, Receptor-type tyrosine-protein kinase FLT3 (Homo sapiens, UniProt P36888); experiment: Inhibition of FLT3 (unknown origin) by FRET-based homogeneous assay
T4 sequence (P36888 whole entry): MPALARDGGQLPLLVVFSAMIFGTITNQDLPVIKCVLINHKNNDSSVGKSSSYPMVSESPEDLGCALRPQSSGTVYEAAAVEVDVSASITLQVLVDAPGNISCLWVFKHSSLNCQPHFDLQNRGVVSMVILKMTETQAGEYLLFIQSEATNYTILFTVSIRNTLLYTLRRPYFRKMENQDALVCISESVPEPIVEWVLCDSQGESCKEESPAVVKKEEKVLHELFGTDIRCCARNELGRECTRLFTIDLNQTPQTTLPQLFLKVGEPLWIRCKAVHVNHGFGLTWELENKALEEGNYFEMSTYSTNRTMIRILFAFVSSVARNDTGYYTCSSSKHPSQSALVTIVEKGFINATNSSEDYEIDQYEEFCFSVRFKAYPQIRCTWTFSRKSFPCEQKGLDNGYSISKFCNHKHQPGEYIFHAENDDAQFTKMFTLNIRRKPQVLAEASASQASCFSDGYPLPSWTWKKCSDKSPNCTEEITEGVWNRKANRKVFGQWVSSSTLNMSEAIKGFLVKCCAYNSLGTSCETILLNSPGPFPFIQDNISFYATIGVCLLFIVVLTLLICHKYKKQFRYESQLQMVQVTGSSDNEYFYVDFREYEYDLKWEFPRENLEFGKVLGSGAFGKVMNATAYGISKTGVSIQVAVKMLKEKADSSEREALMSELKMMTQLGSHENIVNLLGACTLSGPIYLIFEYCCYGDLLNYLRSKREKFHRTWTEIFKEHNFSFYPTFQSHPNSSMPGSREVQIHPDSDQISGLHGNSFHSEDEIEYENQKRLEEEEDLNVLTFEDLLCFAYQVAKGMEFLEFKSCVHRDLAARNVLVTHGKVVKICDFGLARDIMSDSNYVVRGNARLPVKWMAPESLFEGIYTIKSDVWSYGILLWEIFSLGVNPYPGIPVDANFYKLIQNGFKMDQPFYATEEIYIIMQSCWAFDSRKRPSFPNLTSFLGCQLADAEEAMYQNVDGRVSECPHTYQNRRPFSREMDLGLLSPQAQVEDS

MDA-MB-468 [17] = experiment: Antitumor activity against human MDA-MB-468 cells xenografted in mouse assessed as tumor growth inhibition at 50 mg/kg, ip QD for 21 days; assay type: functional, organism-based; parameters: dose 50 mg/kg

Chain of Cytochrome P450 2C19 (P33261 whole entry): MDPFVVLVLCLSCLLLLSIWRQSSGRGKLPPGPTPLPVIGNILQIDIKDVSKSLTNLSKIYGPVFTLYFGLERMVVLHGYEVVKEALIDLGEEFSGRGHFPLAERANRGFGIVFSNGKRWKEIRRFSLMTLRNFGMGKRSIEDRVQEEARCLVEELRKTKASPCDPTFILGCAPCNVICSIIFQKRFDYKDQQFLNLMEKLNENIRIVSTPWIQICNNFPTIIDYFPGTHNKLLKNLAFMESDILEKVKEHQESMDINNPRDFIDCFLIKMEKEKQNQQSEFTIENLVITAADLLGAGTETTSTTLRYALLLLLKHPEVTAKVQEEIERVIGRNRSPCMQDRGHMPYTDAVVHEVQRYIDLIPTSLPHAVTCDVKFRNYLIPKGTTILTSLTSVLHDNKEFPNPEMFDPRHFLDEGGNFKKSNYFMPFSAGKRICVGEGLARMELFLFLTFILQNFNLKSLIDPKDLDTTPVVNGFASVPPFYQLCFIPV
Chain of Cytochrome P450 2C9 (P11712 whole entry): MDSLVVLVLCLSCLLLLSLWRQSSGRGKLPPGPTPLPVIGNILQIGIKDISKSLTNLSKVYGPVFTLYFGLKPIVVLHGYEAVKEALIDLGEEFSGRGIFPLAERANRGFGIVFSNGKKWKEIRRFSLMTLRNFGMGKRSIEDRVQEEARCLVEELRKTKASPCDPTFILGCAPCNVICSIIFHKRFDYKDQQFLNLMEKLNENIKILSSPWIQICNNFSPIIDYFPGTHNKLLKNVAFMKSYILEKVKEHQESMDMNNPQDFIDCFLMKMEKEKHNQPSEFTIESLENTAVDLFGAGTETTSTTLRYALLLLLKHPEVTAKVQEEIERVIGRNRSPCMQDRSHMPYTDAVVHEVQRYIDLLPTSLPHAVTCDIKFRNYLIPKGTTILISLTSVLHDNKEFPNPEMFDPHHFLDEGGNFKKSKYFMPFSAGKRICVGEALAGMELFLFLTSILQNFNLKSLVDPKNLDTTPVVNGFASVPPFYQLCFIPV
Chain of Cytochrome P450 3A4 (P08684 whole entry): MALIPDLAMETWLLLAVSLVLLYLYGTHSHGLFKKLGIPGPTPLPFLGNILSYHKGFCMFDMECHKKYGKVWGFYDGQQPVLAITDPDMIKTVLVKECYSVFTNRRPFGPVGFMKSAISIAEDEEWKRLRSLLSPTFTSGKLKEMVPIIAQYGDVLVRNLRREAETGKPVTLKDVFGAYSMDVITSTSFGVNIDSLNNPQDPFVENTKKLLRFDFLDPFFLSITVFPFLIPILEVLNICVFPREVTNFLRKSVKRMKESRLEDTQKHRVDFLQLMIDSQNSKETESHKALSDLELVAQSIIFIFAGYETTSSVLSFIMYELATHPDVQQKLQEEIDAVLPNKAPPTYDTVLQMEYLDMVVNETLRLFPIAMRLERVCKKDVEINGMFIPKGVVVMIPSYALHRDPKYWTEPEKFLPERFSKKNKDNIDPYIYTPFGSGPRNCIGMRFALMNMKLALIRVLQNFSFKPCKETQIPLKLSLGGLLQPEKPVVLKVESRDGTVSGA
Chain of Serine/threonine-protein kinase PLK3 (Q9H4B4 whole entry): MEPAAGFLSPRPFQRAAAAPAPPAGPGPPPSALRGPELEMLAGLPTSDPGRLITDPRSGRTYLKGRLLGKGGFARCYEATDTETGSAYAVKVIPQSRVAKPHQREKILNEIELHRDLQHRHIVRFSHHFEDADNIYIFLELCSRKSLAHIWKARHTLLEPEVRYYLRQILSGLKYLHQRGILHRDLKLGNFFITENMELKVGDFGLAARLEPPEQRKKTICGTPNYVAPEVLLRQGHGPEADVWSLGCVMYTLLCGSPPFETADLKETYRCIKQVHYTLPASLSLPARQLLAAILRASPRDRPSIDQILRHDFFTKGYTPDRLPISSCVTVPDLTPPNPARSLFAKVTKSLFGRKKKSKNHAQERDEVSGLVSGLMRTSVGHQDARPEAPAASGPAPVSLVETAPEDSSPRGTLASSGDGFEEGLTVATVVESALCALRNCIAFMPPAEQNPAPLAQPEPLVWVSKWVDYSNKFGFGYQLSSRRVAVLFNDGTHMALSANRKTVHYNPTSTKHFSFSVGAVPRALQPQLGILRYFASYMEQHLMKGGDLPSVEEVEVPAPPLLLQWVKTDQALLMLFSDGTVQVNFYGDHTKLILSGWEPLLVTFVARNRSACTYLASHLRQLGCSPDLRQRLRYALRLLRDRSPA
Chain of Vascular endothelial growth factor receptor 2 (P35968 whole entry): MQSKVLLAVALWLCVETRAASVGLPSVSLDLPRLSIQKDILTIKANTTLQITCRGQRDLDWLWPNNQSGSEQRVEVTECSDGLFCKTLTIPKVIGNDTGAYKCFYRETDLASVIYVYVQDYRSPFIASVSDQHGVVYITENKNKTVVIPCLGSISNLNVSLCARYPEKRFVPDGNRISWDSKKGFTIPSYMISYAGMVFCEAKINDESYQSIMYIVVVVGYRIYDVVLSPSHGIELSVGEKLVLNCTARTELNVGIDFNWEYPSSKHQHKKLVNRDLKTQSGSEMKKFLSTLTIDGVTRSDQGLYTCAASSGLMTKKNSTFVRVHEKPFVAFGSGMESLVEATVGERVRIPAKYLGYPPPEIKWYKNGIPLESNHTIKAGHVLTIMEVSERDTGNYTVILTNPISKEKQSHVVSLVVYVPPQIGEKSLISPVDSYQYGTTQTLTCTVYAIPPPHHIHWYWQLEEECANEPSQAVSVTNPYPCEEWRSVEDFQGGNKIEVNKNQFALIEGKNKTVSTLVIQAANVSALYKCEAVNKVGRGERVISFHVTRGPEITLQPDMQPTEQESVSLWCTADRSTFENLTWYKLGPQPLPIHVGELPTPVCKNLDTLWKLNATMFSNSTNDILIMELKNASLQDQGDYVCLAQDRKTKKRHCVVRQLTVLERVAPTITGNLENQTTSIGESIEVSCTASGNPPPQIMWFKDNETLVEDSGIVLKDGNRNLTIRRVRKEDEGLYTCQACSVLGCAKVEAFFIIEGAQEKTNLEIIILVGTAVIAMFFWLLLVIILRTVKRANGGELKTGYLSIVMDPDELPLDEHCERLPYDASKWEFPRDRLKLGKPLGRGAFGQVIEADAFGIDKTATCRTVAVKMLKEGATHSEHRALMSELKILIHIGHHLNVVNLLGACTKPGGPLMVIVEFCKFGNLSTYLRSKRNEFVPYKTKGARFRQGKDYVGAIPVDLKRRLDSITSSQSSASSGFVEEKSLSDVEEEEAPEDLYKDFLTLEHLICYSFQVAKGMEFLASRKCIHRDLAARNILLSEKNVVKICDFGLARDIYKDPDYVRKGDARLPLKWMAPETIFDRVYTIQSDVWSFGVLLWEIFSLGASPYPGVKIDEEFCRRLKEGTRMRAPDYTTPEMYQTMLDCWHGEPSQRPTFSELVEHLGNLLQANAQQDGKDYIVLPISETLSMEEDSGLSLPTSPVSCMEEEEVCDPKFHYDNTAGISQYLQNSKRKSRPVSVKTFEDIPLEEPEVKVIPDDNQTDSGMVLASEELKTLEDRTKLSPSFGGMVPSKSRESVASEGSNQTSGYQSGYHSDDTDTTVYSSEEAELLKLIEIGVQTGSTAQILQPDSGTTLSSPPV
Chain of Serine/threonine-protein kinase PLK2 (Q9NYY3 whole entry): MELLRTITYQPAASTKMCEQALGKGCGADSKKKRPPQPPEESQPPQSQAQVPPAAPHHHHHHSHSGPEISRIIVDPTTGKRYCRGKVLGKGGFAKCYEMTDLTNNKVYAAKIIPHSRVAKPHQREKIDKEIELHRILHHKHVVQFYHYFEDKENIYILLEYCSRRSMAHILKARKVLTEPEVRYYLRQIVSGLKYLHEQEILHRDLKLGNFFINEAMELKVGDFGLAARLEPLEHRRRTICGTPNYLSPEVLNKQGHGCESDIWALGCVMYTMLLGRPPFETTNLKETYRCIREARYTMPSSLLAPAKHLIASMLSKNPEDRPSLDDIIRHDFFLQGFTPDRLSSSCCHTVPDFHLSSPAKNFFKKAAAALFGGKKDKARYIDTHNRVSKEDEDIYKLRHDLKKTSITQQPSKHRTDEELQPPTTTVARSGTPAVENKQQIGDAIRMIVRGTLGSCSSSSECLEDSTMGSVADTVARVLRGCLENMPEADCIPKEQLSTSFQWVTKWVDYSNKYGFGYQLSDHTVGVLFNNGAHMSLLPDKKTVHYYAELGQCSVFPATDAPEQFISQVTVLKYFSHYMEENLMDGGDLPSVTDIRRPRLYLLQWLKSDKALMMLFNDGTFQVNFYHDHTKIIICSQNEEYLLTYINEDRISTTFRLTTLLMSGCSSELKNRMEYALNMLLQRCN
Chain of Cytochrome P450 2D6 (P10635 whole entry): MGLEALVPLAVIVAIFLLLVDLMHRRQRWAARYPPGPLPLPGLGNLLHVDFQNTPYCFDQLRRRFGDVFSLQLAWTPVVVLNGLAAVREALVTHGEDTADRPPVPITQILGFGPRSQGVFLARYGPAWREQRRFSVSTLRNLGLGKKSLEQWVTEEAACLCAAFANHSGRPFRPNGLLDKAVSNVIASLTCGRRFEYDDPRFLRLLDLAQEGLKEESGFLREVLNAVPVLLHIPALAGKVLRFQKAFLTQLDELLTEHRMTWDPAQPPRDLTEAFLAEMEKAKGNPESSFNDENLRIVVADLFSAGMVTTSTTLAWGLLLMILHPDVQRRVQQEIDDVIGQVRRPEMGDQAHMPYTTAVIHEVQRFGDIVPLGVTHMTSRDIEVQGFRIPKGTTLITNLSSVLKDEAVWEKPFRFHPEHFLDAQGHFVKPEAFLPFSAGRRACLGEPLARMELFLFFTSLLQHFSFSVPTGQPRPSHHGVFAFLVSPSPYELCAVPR
Chain of CYP2D6 (P10635 whole entry): as above

IC50 [1] [nM] | IC50 (Cytochrome P450 1A2) [nM] | IC50 (Cytochrome P450 2C9) [nM] | IC50 (Cytochrome P450 2C19) [nM] | IC50 (Cytochrome P450 2D6) [nM] | IC50 (Cytochrome P450 3A4) [nM] | solubility [3] [µg/mL] | fraction unbound [4] | half-life at 1 µM [5] [min] | half-life at 1 µM [6] [min] | Cmax [7] [ng/mL] | AUC at 8 h [8] [ng·h/mL] | IC50 [9] [µM] | IC50 [10] [µM] | IC50 [11] [µM] | Cmax [13] [ng/mL] | Compound | GI50 (MCF7) [nM] | GI50 (MDA-MB-468 [2]) [nM] | GI50 (MDA-MB-231) [nM] | GI50 [12] [µM] | further results
110 | > 10000 | > 1000 | > 1000 | 3100 | > 10000 | 1.7 (≈ 3.91 µM) | 0.053 | 13 | > 60 | 2600 | 7200 | > 100 | > 100 | > 100 | 290 | CN(C)Cc1ccc(/C=C/c2n[nH]c3cc([C@@H]4C[C@@]45C(=O)Nc4ccccc45)ccc23)cc1 (relative stereo) | < 10 | < 10 | < 10 | 17.8 | AUC [14]: 310 ng·h/mL; Activity (Mus musculus): Non-toxic
– | – | 1600 | 800 | – | > 1000 | < 0.1 | 0.009 | 2 | 14 | 90 | 190 | – | – | – | – | COc1ccc2c(c1)/C(=C\c1ccc3c(/C=C/c4ccc(N5CCN(C)CC5)nc4)n[nH]c3c1)C(=O)N2 | < 10 | – | – | – | IC50 [15]: 7.3 nM; IC50 at 15 min (CYP1A2): > 10 µM; IC50 at 45 min (CYP2D6): > 10 µM
1300 | 1400 | 30 | 260 | 700 | > 1000 | 0.4 (≈ 1.06 µM) | 0.045 | 18 | > 60 | 1700 | 2900 | > 100 | > 100 | > 100 | 470 | O=C1Nc2ccccc2[C@]12C[C@H]2c1ccc2c(/C=C/c3ccncc3)n[nH]c2c1 (relative stereo) | 600 | 360 | 680 | 20.3 | IC50 [16]: 33 nM; AUC [14]: 650 ng·h/mL
– | – | – | – | – | – | – | – | – | – | – | – | – | – | – | – | Cc1cc(Nc2cc(N3CCN(C)CC3)nc(Sc3ccc(NC(=O)C4CC4)cc3)n2)n[nH]1 | – | – | – | – | TGI (MDA-MB-468 [17]): 73%
